Reference: patent publication US12729388B2, “Methods and systems for producing cellulosic ethanol by biomass saccharification and fermentation” (ZHEJIANG HUAKANG PHARMACEUTICAL CO., LTD., priority 2021, dated 2026)

Test system: cellulase Cellic CTec 2
Assay: Validation experiment of the inhibitory effect of glucose and ethanol on the enzymatic hydrolysis reaction
Type: biochemical
Conditions: Group C: 50 g/L ethanol externally added, corn cob waste 15% dry substrate, cellulase 4% of dry substrate, pH 5.0~6.0, 50° C., 300 rpm
Experimental: Validation experiment of the inhibitory effect of glucose and ethanol on the enzymatic hydrolysis reaction. A reaction system was prepared using a citric acid buffer solution with a concentration of 0.1 mol/L. The citric acid buffer solution was added to a corn cob waste system in which a content of the biomass feedstock was 15% of a dry substrate, a pH of the mixture was maintained at 5.0~6.0, and cellulase […] a content of 4% of the dry substrate was added to the mixture to prepare three groups of 1 L reaction systems. [table] The three reaction systems were subjected to enzymatic hydrolysis at 50° C. for 72 hours under a condition of stirring at 300 rpm. Samples were taken from each reaction system every 12 hours to measure an amount of glucose released by the enzymatic hydrolysis, and results are shown in FIG. 3. FIG. 3 is a schematic diagram illustrating that glucose release concentration changes over time in an enzymatic hydrolysis system with external addition of glucose and ethanol according to some embodiments of the present disclosure.

- amount of glucose released during the 72-hour enzymatic hydrolysis, lower than that of the control Group A: 8%
Compound: CCO [ethanol]
